Assays:
Tyromyces palustris = assay: Inhibition of hypha growth on malt extract agar, Tyromyces palustris; conditions: read-out: Controlling effect (growth inhibition rate) TYP
Protocol: (§1) Each preparation to be tested was added to malt extract agar medium to adjust the concentration to 50 ppm, and the resulting mixture was dispensed into Petri dishes. As an inoculum, a prepared mycerial tuft of each test fungus was punched out together with agar by means of a 4-mm-diameter cork borer and inoculated on medium. The incubation temperature was adjusted to 28±2° .C (or 18±2° C. in the case of Selupula lacrymas).
(§2) The diameter of mycerial tuft was measured 2 to 10 days after the inoculation, and the inhibition rate of hypha growth (the following equation) was measured.

Trichoderma viride = assay: Inhibition of hypha growth on malt extract agar, Trichoderma viride; conditions: read-out: Controlling effect (growth inhibition rate) TRV
Protocol: as §1, §2

Coriolus versicolor = assay: Inhibition of hypha growth on malt extract agar, Coriolus versicolor; type: cell-based; conditions: Trametes versicolor, 28±2° C., 2 to 10 days, read-out: Controlling effect (growth inhibition rate) COV
Serpula lacrymans = assay: Inhibition of hypha growth on malt extract agar, Serpula lacrymans; conditions: read-out: Controlling effect (growth inhibition rate) SEL
Protocol: as §1, §2

[1] = tested on: Pseudoperonospora cubensis; assay: Controlling effect on cucumber Downy mildew; type: in vivo; conditions: 168 h, 200 ppm spray, inoculation after 24 hours, read-out: Controlling effect Pc (cucumber downy mildew)
Chaetomium globosum = assay: Inhibition of hypha growth on malt extract agar, Chaetomium globosum; conditions: read-out: Controlling effect (growth inhibition rate) CHG
Protocol: as §1, §2
(§3) The controlling effect was evaluated according to the following criterion.

Aspergillus niger = assay: Inhibition of hypha growth on malt extract agar, Aspergillus niger; conditions: read-out: Controlling effect (growth inhibition rate) ASN
Protocol: as §1, §2, §3

Pyricularia oryzae = assay: whole plant or invertebrate; type: in vivo; conditions: 168 h, read-out: Controlling effect Ps (rice blast)
Botrytis cinerea = assay: Controlling effect (curing effect) on cucumber gray mold; type: in vivo; conditions: 72 h, immersion of inoculated cotyledons, 15° C., read-out: Controlling effect Bc (cucumber gray mold)
Protocol: Controlling effect (curing effect) on cucumber gray mold The cotyledons of potted cucumber plants at the 1 leaf stage were cut off and each of them was inoculated with a mycelial tuft of gray mold fungus (Botrytis cinerea) cultured on PSA medium. After having been placed in a moist chamber at 15° C. for 24 hours, the cotyledons were immersed in a 200 ppm liquid chemical containing each compound of the present invention as active ingredient. […]

Phytophthora infestants = assay: whole plant or invertebrate; type: in vivo; conditions: 168 h; read-out: Controlling effect Pi (tomato late blight)
Rhizopus nigricans = assay: Inhibition of hypha growth on malt extract agar, Rhizopus nigricans; conditions: Rhizopus stolonifer, read-out: Controlling effect (growth inhibition rate) RHS
Protocol: as §1, §2

[2] = tested on: Cladosporium cladosporioides; assay: Inhibition of hypha growth on malt extract agar, Cladosporium cladosporioides; conditions: read-out: Controlling effect (growth inhibition rate) CLC
Protocol: as §1, §2

Fusarium oxysporum = assay: Inhibition of hypha growth on malt extract agar, Fusarium oxysporum; conditions: read-out: Controlling effect (growth inhibition rate) FUO
Protocol: as §1, §2, §3

Alternaria mali = assay: Inhibition of hypha growth on malt extract agar, Alternaria mali; conditions: read-out: Controlling effect (growth inhibition rate) ALM
Protocol: as §1, §2, §3

| Compound | inhibition at 50 ppm (Tyromyces palustris) [%] | inhibition at 50 ppm (Trichoderma viride) [%] | inhibition at 50 ppm (Coriolus versicolor) [%] | inhibition at 50 ppm (Serpula lacrymans) [%] | pest or weed control at 200 ppm [1] [%] | inhibition at 50 ppm (Chaetomium globosum) [%] | inhibition at 50 ppm (Aspergillus niger) [%] | pest or weed control at 200 ppm (Pyricularia oryzae) [%] | pest or weed control at 200 ppm (Botrytis cinerea) [%] | pest or weed control at 200 ppm (Phytophthora infestants) [%] | inhibition at 50 ppm (Rhizopus nigricans) [%] | inhibition at 50 ppm [2] [%] | inhibition at 50 ppm (Fusarium oxysporum) [%] | inhibition at 50 ppm (Alternaria mali) [%] |
| --- | --- | --- | --- | --- | --- | --- | --- | --- | --- | --- | --- | --- | --- | --- |
| N#Cc1c(O)nsc1S(=O)(=O)c1ccccc1 [Compound 1, 3-hydroxy-4-cyano-5-phenylsulfonylisothiazole] | 55 to 84 | 85 to 99 | 85 to 99 | 85 to 99 | 60 to 79 | 85 to 99 | 55 to 84 | 80 to 94 | 0 to 59 | 60 to 79 | 85 to 99 | 55 to 84 | 55 to 84 | 55 to 84 |
| CCOC(=O)c1ccccc1S(=O)(=O)c1snc(O)c1C#N [Compound 5] | – | – | – | – | 60 to 79 | – | – | 60 to 79 | 0 to 59 | 80 to 94 | – | – | – | – |
| COc1nsc([S+](C)[O-])c1C#N (stereo not shown) [Compound 15, 3-methoxy-4-cyano-5-methylsulfoxyisothiazole] | 100 | 100 | 100 | 100 | 95 to 100 | 100 | 100 | 95 to 100 | 60 to 79 | 95 to 100 | 100 | 100 | 100 | 100 |
| C#CCOc1nsc([S+](C)[O-])c1C#N (stereo not shown) [Compound 16] | 100 | 100 | 85 to 99 | 100 | 95 to 100 | 100 | 100 | 80 to 94 | 60 to 79 | 95 to 100 | 100 | 100 | 85 to 99 | 100 |
| COc1nsc(S(C)(=O)=O)c1C#N [Compound 20, 3-methoxy-4-cyano-5-methylsulfonylisothiazole] | 100 | 100 | 100 | 100 | 95 to 100 | 100 | 100 | 95 to 100 | 60 to 79 | 95 to 100 | 100 | 100 | 100 | 100 |
| CCOc1nsc(S(C)(=O)=O)c1C#N [Compound 21] | – | – | – | – | 95 to 100 | – | – | 95 to 100 | 60 to 79 | 95 to 100 | – | – | – | – |
| C=CCOc1nsc(S(C)(=O)=O)c1C#N [Compound 22] | 100 | 85 to 99 | 100 | 100 | 80 to 94 | 55 to 84 | 85 to 99 | 95 to 100 | 0 to 59 | 95 to 100 | 85 to 99 | 100 | 85 to 99 | 85 to 99 |
| CCOc1nsc(S(=O)(=O)CC)c1C#N [Compound 23] | – | – | – | – | 95 to 100 | – | – | 95 to 100 | 60 to 79 | 95 to 100 | – | – | – | – |
| CS(=O)(=O)c1snc(OC(F)F)c1C#N [Compound 24, 3-difluoromethoxy-4-cyano-5-methylsulfonylisothiazole] | 100 | 100 | 100 | 100 | 95 to 100 | 55 to 84 | 100 | 95 to 100 | 0 to 59 | 95 to 100 | 85 to 99 | 100 | 85 to 99 | 100 |
| CCS(=O)(=O)c1snc(OC(F)F)c1C#N [Compound 25] | – | – | – | – | 95 to 100 | – | – | 80 to 94 | 60 to 79 | 95 to 100 | – | – | – | – |
| CC(C)S(=O)(=O)c1snc(OC(F)F)c1C#N [Compound 27] | – | – | – | – | 80 to 94 | – | – | 95 to 100 | 0 to 59 | 95 to 100 | – | – | – | – |
| COc1nsc(S(=O)(=O)C(C)C)c1C#N [Compound 35] | – | – | – | – | 95 to 100 | – | – | 95 to 100 | 0 to 59 | 95 to 100 | – | – | – | – |
| CCS(=O)(=O)c1snc(OC)c1C#N [Compound 37] | – | – | – | – | 95 to 100 | – | – | 95 to 100 | 0 to 59 | 95 to 100 | – | – | – | – |
| CCOc1nsc(S(=O)(=O)C(C)C)c1C#N [Compound 38] | – | – | – | – | 95 to 100 | – | – | 95 to 100 | 60 to 79 | 95 to 100 | – | – | – | – |
| CCCCS(=O)(=O)c1snc(OC(C)C)c1C#N [Compound 52] | – | – | – | – | 95 to 100 | – | – | 80 to 94 | 60 to 79 | 95 to 100 | – | – | – | – |
| C#CCOc1nsc(S(=O)(=O)CC)c1C#N [Compound 58] | – | – | – | – | 95 to 100 | – | – | 80 to 94 | 0 to 59 | 95 to 100 | – | – | – | – |
| COc1nsc(S(=O)(=O)c2ccc(C)cc2)c1C#N [Compound 90, 3-methoxy-4-cyano-5-(4-methylphenyl) sulfonylisothiazole] | – | – | – | – | 95 to 100 | – | – | 95 to 100 | 60 to 79 | 95 to 100 | – | – | – | – |
| C#CCOc1nsc(S(=O)(=O)c2ccccc2)c1C#N [Compound 104] | – | – | – | – | 80 to 94 | – | – | 95 to 100 | 60 to 79 | 95 to 100 | – | – | – | – |
| N#Cc1c(OC(F)F)nsc1S(=O)(=O)c1ccc(Cl)cc1 [Compound 111] | 100 | 100 | 85 to 99 | 85 to 99 | – | 100 | 100 | – | – | – | 100 | 100 | 85 to 99 | 100 |
| Cc1ccc(Cl)cc1S(=O)(=O)c1snc(OC(F)F)c1C#N [Compound 113] | 100 | 100 | 100 | 100 | – | 100 | 100 | – | – | – | 100 | 100 | 100 | 100 |
| CC(C)(C)c1ccc(S(=O)(=O)c2snc(OC(F)F)c2C#N)cc1 [Compound 117] | 85 to 99 | 100 | 100 | 100 | – | 100 | 100 | – | – | – | 100 | 85 to 99 | 85 to 99 | 85 to 99 |
| C=CCOc1nsc(S(=O)(=O)c2ccc(C)cc2)c1C#N [Compound 119] | 85 to 99 | 100 | 100 | 100 | – | 100 | 85 to 99 | – | – | – | 100 | 100 | 85 to 99 | 85 to 99 |
| C#CCOc1nsc(S(=O)(=O)c2ccc(Cl)cc2)c1C#N [Compound 120] | – | – | – | – | 95 to 100 | – | – | 95 to 100 | 60 to 79 | 95 to 100 | – | – | – | – |
| CCOc1nsc(S(=O)(=O)C(F)F)c1C#N [Compound 141] | – | – | – | – | 95 to 100 | – | – | 95 to 100 | 80 to 94 | 95 to 100 | – | – | – | – |
| CCC(C)Oc1nsc(S(=O)(=O)C(F)F)c1C#N (stereo not shown) [Compound 145] | – | – | – | – | 95 to 100 | – | – | 95 to 100 | 0 to 59 | 95 to 100 | – | – | – | – |

Reference: patent US5484934A, “Isothiazole derivatives, a process for production thereof and uses thereof” (Nihon Nohyaku Co., Ltd., priority 1992, dated 1996)
